Patent US8940690B2, “Synthetic conjugates and uses thereof” (National Institutes of Health (NIH), priority 2009, dated 2015)

How the values were obtained:
[1] = Serum insulin (PK) profile after subcutaneous injection, Human Insulin ELISA; type: in vivo, rat; conditions: 5 U/kg
Method: Blood samples were collected via tail vein bleeding at 0 minutes and at 30, 60, 90, 120, 150, 180, 210, 240, and 300 minutes after injection. Blood from each timepoint was centrifuged at 4 C to collect the serum. Serum insulin concentrations were subsequently measured with a commercially available ELISA kit (Human Insulin ELISA, Mercodia, Uppsala, Sweden).
This example describes the serum insulin and blood glucose depression profiles obtained for a subcutaneously administered exemplary conjugate. […] In this case, the conjugate was injected at 5 U/kg behind the neck of fasted normal non-diabetic rats (Male Sprague-Dawley, 400-500 g, n=3). […] Serum insulin concentrations were subsequently measured with a commercially available ELISA kit (Human Insulin ELISA, Mercodia, Uppsala, Sweden).
In each case, the conjugate or insulin lispro was injected at 3.5 U/kg behind the neck of fasted normal non-diabetic rats (Male Sprague-Dawley, 400-500 gm, n=6). […] Serum insulin concentrations were subsequently measured with a commercially available ELISA kit (Human Insulin ELISA, Mercodia, Uppsala, Sweden).
Blood samples were collected via tail vein bleeding at 0 minutes and at 30, 60, 90, 120, 150, 180, 210, 240, and 300 minutes after injection. […] Serum insulin concentrations were subsequently measured with a commercially available ELISA kit (Human Insulin ELISA, Mercodia, Uppsala, Sweden).

[2] = test system: fasted normal non-diabetic rats (Male Sprague-Dawley); assay: Blood glucose depression profile after subcutaneous injection; type: in vivo, rat
Method: Subcutaneous injections of the insulin-dextran were administered using 0.25 ml of a sterilized 1×PBS solution (20 U of equivalent insulin/ml) behind the neck of fasted normal non-diabetic rats (Male Sprague-Dawley, 200-250 g, n=4). Blood samples were collected via tail vein bleeding at −15 and 0 minutes, and at 15, 30, 45, 60, 90, 120, 180, 240, 300 and 360 minutes after injection. Blood glucose values were measured using commercially available test strips (Precision Xtra, Abbott Laboratories, Abbott Park, Ill.).
This example evaluates the in vivo pharmacodynamic profile of subcutaneously administered insulin-glycogen. […] The bioactivity of the insulin-glycogen conjugate was evaluated by injecting a 2.5 equivalent U of insulin/kg dose behind the neck of fasted normal non-diabetic rats (Male Sprague-Dawley, 200-250 g, n=4). Blood samples were collected via tail vein bleeding at −15 and 0 minutes, and at 15, 30, 45, 60, 90, 120, 180, 240, 300 and 360 minutes after injection. Blood glucose values were measured using commercially available test strips (Precision Xtra, Abbott Laboratories, Abbott Park, Ill.).

[3] = 0.25 ml of 20 U of equivalent insulin/ml

B29-substituted conjugate: synthesized using TSAT-C6 as the framework, AEM as the affinity ligand, and recombinant human insulin as the drug
pharmacokinetic profile (serum insulin) compared to RHI and B1-substituted conjugate [1]: statistically indistinguishable from that of RHI

insulin-dextran: comparative insulin-dextran conjugate (dextran MW 70K) made by CNBr coupling, 10% (w/w) insulin
time serum glucose levels remain depressed post injection [2, 3]: at least five
time to reach the glucose nadir (Tnadir) [2, 3]: about 3 hours

insulin-glycogen: comparative insulin-glycogen conjugate from oyster glycogen Type II according to US 20070099820
glucose lowering compared to insulin-dextran conjugates ([2]; 2.5 equivalent U of insulin/kg): lower glucose levels much more rapidly and to a greater extent
